Assay results: ChEMBL document CHEMBL1125006, “DNA-directed alkylating agents. 2. Synthesis and biological activity of platinum complexes linked to 9-anilinoacridine” (J Med Chem, 1990)
Active and inactive are the calls of the source. The calls are words filed in the database; no cut-off is given here.

System: P388
Assay: In vitro inhibition of P388 (murine leukemia) cell growth.
Type: functional, cell-based, Mus musculus
Conditions: Mus musculus, P388

Compound | IC50 [nM]
NCCNCCCCc1ccc(Nc2c3ccccc3nc3ccccc23)cc1 | 7800
NCC(CN)CCCCCc1ccc(Nc2c3ccccc3nc3ccccc23)cc1 | 720
NCCNCCc1ccc(Nc2c3ccccc3nc3ccccc23)cc1 | 12500
NCC(CN)CCc1ccc(Nc2c3ccccc3nc3ccccc23)cc1 | 310
NCCNCCCc1ccc(Nc2c3ccccc3nc3ccccc23)cc1 | 3700
NCC(CN)CCCCc1ccc(Nc2c3ccccc3nc3ccccc23)cc1 | 720
NCC(CN)Cc1ccc(Nc2c3ccccc3nc3ccccc23)cc1 | 7200
NCC(CN)CCCc1ccc(Nc2c3ccccc3nc3ccccc23)cc1 | 120
NCCNCCCCCc1ccc(Nc2c3ccccc3nc3ccccc23)cc1 | 7300

Same assay, conditions: p388

Compound | IC50 [nM]
9-[4-(5-Amino-4-aminomethyl-pentyl)-phenylamino]-5-methoxy-acridine-4-carboxylic acid (2-dimethylamino-ethyl)-amide (2HCl) [listing 1 of 2 here] | 1600
DICHLORO(ETHYLENEDIAMINE) PLATINUM (II) [listing 1 of 2 here] | 300

Continued, values first:

IC50 [nM] | Compound
1200 | CISPLATIN [listing 1 of 2 here]
2900 | N,1-{2-[4-(Acridin-9-ylamino)-phenyl]-ethyl}-ethane-1,2-diammino-dichloroplatinum (II) [listing 1 of 2 here]
120 | Dichloro(1,3-propanediamine)platinum (II) [listing 1 of 2 here]
2900 | 2-{3-[4-(Acridin-9-ylamino)-phenyl]-propyl}-propane-1,3-diammino-dichloroplatinum (II) (HCl) [listing 1 of 2 here]
7200 | 2-{4-[4-(Acridin-9-ylamino)-phenyl]-butyl}-propane-1,3-diammino-dichloroplatinum (II) (HCl) [listing 1 of 2 here]

System: P388
Assay: Optimal i.p. dose in P388 (murine leukemia) inoculated mice.
Type: functional, Mus musculus
Conditions: not given

Compound | OD [mg/kg]
NCCNCCCCc1ccc(Nc2c3ccccc3nc3ccccc23)cc1 | 65
NCC(CN)CCCCCc1ccc(Nc2c3ccccc3nc3ccccc23)cc1 | 13.3
COc1cccc2c(Nc3ccc(CCCC(CN)CN)cc3)c3cccc(C(=O)NCCN(C)C)c3nc12 | 30
NCCNCCc1ccc(Nc2c3ccccc3nc3ccccc23)cc1 | 45
NCC(CN)CCc1ccc(Nc2c3ccccc3nc3ccccc23)cc1 | 30
NCCNCCCc1ccc(Nc2c3ccccc3nc3ccccc23)cc1 | 20
NCC(CN)CCCCc1ccc(Nc2c3ccccc3nc3ccccc23)cc1 | 20
NCC(CN)Cc1ccc(Nc2c3ccccc3nc3ccccc23)cc1 | 45
NCC(CN)CCCc1ccc(Nc2c3ccccc3nc3ccccc23)cc1 | 30
NCCNCCCCCc1ccc(Nc2c3ccccc3nc3ccccc23)cc1 | 20

Same assay, conditions: Mus musculus

Compound | OD [mg/kg]
2-{4-[4-(Acridin-9-ylamino)-phenyl]-butyl}-propane-1,3-diammino-dichloroplatinum (II) (HCl) [listing 2 of 2 here] | 30
Dichloro(1,3-propanediamine)platinum (II) [listing 2 of 2 here] | 8.9
DICHLORO(ETHYLENEDIAMINE) PLATINUM (II) [listing 2 of 2 here] | 13.3
9-[4-(5-Amino-4-aminomethyl-pentyl)-phenylamino]-5-methoxy-acridine-4-carboxylic acid (2-dimethylamino-ethyl)-amide (2HCl) [listing 2 of 2 here] | 45
N,1-{2-[4-(Acridin-9-ylamino)-phenyl]-ethyl}-ethane-1,2-diammino-dichloroplatinum (II) [listing 2 of 2 here] | 13.3
2-{3-[4-(Acridin-9-ylamino)-phenyl]-propyl}-propane-1,3-diammino-dichloroplatinum (II) (HCl) [listing 2 of 2 here] | 20
CISPLATIN [listing 2 of 2 here] | 5.3

System: P388
Assay: In vitro inhibition of Pt resistant P388 (murine leukemia) cell growth.
Type: functional, cell-based, Mus musculus
Conditions: Mus musculus, P388

Compound | IC50 [nM]
NCCNCCCCc1ccc(Nc2c3ccccc3nc3ccccc23)cc1 | 1300
NCC(CN)CCCCCc1ccc(Nc2c3ccccc3nc3ccccc23)cc1 | 690
NCCNCCc1ccc(Nc2c3ccccc3nc3ccccc23)cc1 | 45000
NCC(CN)CCc1ccc(Nc2c3ccccc3nc3ccccc23)cc1 | 630
NCCNCCCc1ccc(Nc2c3ccccc3nc3ccccc23)cc1 | 700
NCC(CN)CCCCc1ccc(Nc2c3ccccc3nc3ccccc23)cc1 | 680
NCC(CN)Cc1ccc(Nc2c3ccccc3nc3ccccc23)cc1 | 700
NCC(CN)CCCc1ccc(Nc2c3ccccc3nc3ccccc23)cc1 | 120
NCCNCCCCCc1ccc(Nc2c3ccccc3nc3ccccc23)cc1 | 3000

Same assay, conditions: p388

Compound | IC50 [nM]
9-[4-(5-Amino-4-aminomethyl-pentyl)-phenylamino]-5-methoxy-acridine-4-carboxylic acid (2-dimethylamino-ethyl)-amide (2HCl) [listing 1 of 2 here] | 1000
DICHLORO(ETHYLENEDIAMINE) PLATINUM (II) [listing 1 of 2 here] | 1030

Continued, values first:

IC50 [nM] | Compound
5500 | CISPLATIN [listing 1 of 2 here]
2400 | N,1-{2-[4-(Acridin-9-ylamino)-phenyl]-ethyl}-ethane-1,2-diammino-dichloroplatinum (II) [listing 1 of 2 here]
380 | Dichloro(1,3-propanediamine)platinum (II) [listing 1 of 2 here]
1900 | 2-{3-[4-(Acridin-9-ylamino)-phenyl]-propyl}-propane-1,3-diammino-dichloroplatinum (II) (HCl) [listing 1 of 2 here]
900 | 2-{4-[4-(Acridin-9-ylamino)-phenyl]-butyl}-propane-1,3-diammino-dichloroplatinum (II) (HCl) [listing 1 of 2 here]

System: P388
Assay: Increase in mean survival of P388 (murine leukemia) inoculated mice following optimal dose.
Type: functional, organism-based
Conditions: Mus musculus

Compound | ILS [%]
Dichloro(1,3-propanediamine)platinum (II) [listing 2 of 2 here] | 31
DICHLORO(ETHYLENEDIAMINE) PLATINUM (II) [listing 2 of 2 here] | 70
9-[4-(5-Amino-4-aminomethyl-pentyl)-phenylamino]-5-methoxy-acridine-4-carboxylic acid (2-dimethylamino-ethyl)-amide (2HCl) [listing 2 of 2 here] | 28
CISPLATIN [listing 2 of 2 here] | 120

System: P388
Assay: Increase in mean survival of P388 (murine leukemia) inoculated mice; no effect.
Type: functional
Conditions: Mus musculus

Compound | ILS
2-{4-[4-(Acridin-9-ylamino)-phenyl]-butyl}-propane-1,3-diammino-dichloroplatinum (II) (HCl) [listing 2 of 2 here] | inactive
NCCNCCCCc1ccc(Nc2c3ccccc3nc3ccccc23)cc1 | inactive
NCC(CN)CCCCCc1ccc(Nc2c3ccccc3nc3ccccc23)cc1 | inactive
COc1cccc2c(Nc3ccc(CCCC(CN)CN)cc3)c3cccc(C(=O)NCCN(C)C)c3nc12 | inactive
NCCNCCc1ccc(Nc2c3ccccc3nc3ccccc23)cc1 | inactive
NCC(CN)CCc1ccc(Nc2c3ccccc3nc3ccccc23)cc1 | inactive
NCCNCCCc1ccc(Nc2c3ccccc3nc3ccccc23)cc1 | inactive
N,1-{2-[4-(Acridin-9-ylamino)-phenyl]-ethyl}-ethane-1,2-diammino-dichloroplatinum (II) [listing 2 of 2 here] | inactive
2-{3-[4-(Acridin-9-ylamino)-phenyl]-propyl}-propane-1,3-diammino-dichloroplatinum (II) (HCl) [listing 2 of 2 here] | inactive
NCC(CN)CCCCc1ccc(Nc2c3ccccc3nc3ccccc23)cc1 | inactive
NCC(CN)Cc1ccc(Nc2c3ccccc3nc3ccccc23)cc1 | inactive
NCC(CN)CCCc1ccc(Nc2c3ccccc3nc3ccccc23)cc1 | inactive
NCCNCCCCCc1ccc(Nc2c3ccccc3nc3ccccc23)cc1 | inactive
